Experiments:
Test in all cases: Kinase panel (mobility shift)
Format in all cases: biochemical
KIT = KIT (Homo sapiens, UniProt P10721)
Description: (§1) The disclosed compounds were tested for activity against a panel of 299 kinases. The target enzyme was incubated with fluorescently labeled substrate and test compounds in a standardized reaction mixture in 384 well plates. Upon termination of the reaction, samples were introduced onto microfluidic chips. The samples migrated through channels in the chips and product and substrate were separated based on the difference in their charge (electrophoretic mobility shift). Enzyme activity was measured by direct comparison of the fluorescence in the product and substrate peaks. […] In the tables A=95% or greater at 5 um, B=90%-94% at 5 um, and C=80%-89% at 5 um. [note to draft: we included category D for 50-79 and category E is less than 50%. Feel free to remove if not needed)

EPH-A5 = EPH-A5 (Homo sapiens, UniProt P54756); conditions: at 5 um
Sequence of EPH-A5 (P54756 25-1037, species assumed): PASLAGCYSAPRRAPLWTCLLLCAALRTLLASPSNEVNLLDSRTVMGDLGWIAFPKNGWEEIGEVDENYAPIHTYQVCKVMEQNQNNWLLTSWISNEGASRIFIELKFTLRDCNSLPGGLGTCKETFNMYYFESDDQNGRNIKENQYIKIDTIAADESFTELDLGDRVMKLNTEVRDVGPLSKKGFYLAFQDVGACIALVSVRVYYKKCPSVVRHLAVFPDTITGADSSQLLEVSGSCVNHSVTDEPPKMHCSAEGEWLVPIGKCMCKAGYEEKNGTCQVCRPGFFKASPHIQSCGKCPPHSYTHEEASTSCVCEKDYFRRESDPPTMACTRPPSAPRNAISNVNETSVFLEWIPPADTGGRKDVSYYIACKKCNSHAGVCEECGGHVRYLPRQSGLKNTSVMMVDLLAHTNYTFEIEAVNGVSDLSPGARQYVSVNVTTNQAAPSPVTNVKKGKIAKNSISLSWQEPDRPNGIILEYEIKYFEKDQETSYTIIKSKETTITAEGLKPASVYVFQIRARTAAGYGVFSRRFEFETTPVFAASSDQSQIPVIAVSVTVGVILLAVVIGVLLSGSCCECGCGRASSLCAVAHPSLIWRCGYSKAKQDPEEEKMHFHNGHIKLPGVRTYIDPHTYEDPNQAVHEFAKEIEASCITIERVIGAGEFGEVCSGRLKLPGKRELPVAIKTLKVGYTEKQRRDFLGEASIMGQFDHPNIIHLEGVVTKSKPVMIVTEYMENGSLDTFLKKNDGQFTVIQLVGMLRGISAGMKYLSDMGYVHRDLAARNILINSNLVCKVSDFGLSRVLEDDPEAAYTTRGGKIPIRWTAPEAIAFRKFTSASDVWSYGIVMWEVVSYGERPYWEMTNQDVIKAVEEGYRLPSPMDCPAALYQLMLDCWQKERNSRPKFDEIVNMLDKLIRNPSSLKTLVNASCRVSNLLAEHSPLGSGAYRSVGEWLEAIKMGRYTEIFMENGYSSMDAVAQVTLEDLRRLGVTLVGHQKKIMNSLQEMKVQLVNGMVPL
Description: as §1

TRKA = TRKA (Homo sapiens, UniProt P04629)
Sequence of TRKA (P04629 33-796, species assumed): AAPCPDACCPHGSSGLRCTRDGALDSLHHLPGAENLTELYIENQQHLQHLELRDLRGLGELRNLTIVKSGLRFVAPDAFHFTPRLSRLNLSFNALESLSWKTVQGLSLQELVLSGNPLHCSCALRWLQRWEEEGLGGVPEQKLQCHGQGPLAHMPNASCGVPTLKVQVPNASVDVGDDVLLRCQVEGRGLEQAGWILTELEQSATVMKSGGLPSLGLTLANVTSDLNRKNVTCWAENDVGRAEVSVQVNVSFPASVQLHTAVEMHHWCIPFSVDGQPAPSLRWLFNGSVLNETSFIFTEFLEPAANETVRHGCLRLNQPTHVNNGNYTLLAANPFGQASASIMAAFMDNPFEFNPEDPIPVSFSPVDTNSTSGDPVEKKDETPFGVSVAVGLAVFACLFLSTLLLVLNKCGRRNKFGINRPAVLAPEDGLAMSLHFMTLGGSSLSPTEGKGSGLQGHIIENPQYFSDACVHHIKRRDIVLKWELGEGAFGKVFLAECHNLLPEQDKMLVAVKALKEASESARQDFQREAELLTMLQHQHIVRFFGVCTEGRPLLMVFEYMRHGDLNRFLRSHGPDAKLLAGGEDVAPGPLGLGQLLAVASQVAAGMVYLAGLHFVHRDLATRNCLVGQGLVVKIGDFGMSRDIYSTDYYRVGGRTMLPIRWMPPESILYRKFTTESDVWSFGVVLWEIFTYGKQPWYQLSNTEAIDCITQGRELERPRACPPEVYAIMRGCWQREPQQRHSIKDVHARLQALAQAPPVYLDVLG
Description: as §1

LCK = LCK (Homo sapiens, UniProt P06239)
Sequence of LCK (P06239 whole entry, species assumed): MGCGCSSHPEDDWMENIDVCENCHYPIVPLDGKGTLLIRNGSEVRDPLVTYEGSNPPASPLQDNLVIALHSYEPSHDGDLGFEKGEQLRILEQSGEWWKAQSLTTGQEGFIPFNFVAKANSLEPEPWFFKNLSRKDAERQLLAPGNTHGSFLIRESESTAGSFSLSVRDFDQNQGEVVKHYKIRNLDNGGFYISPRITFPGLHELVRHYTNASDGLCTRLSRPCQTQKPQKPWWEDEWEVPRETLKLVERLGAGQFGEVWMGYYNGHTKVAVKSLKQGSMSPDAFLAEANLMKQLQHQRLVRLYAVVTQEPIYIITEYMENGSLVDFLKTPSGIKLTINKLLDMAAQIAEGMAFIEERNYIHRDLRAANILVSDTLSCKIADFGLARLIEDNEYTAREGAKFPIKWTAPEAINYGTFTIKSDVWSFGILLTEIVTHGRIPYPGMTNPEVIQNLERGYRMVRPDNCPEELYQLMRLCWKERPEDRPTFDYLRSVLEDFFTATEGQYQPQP
Description: as §1

MUSK = biological target: T1, MUSK (Homo sapiens, UniProt O15146)
T1 sequence (O15146 24-869): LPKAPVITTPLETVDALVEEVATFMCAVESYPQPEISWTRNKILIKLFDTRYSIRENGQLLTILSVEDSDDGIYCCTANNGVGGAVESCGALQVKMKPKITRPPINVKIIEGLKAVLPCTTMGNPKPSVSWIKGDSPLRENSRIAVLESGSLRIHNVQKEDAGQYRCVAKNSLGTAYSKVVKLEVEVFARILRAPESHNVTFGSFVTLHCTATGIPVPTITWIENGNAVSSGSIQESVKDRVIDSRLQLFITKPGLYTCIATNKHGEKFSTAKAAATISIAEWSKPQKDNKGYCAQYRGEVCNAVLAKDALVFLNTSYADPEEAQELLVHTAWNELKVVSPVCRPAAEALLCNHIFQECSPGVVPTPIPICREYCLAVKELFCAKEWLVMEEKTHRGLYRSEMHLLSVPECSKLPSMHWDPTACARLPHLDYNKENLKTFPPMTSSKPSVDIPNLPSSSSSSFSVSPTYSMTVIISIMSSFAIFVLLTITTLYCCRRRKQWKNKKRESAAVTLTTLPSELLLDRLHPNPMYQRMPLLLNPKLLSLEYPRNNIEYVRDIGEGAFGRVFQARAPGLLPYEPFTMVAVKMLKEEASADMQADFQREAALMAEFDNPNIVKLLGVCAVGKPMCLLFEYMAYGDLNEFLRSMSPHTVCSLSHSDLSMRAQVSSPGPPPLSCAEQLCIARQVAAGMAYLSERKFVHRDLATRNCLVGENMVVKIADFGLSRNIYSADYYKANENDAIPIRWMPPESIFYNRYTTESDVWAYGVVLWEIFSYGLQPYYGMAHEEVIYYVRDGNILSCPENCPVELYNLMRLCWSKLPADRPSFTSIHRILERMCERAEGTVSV
Description: as §1

PDGFR-a = PDGFR-a (Homo sapiens, UniProt P16234)
Sequence of PDGFR-a (P16234 24-1089, species assumed): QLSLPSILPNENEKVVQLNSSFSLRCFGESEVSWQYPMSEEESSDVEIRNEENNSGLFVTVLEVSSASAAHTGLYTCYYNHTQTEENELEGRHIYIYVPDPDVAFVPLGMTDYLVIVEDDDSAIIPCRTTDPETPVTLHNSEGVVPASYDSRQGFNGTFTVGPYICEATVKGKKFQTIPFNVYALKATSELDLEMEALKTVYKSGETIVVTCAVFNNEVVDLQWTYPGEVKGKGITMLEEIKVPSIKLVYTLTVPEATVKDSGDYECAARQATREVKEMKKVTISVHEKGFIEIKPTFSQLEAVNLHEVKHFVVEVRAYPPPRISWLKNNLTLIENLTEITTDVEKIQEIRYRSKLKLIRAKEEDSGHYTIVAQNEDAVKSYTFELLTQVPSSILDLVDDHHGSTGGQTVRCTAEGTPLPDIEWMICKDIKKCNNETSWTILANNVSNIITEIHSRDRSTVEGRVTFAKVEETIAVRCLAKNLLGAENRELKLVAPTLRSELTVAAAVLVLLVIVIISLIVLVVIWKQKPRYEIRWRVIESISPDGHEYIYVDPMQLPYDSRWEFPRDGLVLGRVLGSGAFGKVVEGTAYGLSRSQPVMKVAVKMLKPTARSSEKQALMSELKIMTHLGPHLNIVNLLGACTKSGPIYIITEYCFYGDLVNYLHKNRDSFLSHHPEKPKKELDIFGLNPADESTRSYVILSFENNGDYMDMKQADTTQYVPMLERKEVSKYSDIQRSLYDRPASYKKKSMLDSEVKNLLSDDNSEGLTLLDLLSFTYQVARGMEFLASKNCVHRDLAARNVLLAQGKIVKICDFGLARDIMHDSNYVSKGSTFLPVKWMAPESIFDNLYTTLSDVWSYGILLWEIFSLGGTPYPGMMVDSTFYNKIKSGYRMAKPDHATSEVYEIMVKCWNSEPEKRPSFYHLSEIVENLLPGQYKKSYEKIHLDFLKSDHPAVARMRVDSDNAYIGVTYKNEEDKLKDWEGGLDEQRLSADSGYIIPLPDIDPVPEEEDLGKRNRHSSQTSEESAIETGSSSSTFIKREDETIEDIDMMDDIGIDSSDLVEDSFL
Description: as §1

HIPK4 = biological target: T2, HIPK4 (Homo sapiens, UniProt Q8NE63)
T2 sequence (Q8NE63 1-616): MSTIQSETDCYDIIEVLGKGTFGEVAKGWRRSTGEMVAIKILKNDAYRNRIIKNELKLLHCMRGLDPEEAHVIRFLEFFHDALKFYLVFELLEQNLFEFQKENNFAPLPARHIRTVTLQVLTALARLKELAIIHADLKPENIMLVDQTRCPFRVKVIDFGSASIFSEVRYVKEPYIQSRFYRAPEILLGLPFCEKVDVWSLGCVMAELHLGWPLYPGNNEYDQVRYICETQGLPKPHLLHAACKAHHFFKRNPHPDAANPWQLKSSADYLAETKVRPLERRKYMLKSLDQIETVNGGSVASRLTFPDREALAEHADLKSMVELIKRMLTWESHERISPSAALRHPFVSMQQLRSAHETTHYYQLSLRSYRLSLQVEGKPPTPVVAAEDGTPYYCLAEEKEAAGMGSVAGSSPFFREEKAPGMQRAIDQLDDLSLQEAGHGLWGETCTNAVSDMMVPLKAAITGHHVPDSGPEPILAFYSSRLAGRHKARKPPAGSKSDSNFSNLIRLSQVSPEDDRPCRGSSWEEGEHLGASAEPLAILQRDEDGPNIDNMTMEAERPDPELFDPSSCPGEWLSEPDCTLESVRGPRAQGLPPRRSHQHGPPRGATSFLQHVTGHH
Description: as §1

BRK = BRK (Homo sapiens, UniProt Q13882)
Sequence of BRK (Q13882 whole entry, species assumed): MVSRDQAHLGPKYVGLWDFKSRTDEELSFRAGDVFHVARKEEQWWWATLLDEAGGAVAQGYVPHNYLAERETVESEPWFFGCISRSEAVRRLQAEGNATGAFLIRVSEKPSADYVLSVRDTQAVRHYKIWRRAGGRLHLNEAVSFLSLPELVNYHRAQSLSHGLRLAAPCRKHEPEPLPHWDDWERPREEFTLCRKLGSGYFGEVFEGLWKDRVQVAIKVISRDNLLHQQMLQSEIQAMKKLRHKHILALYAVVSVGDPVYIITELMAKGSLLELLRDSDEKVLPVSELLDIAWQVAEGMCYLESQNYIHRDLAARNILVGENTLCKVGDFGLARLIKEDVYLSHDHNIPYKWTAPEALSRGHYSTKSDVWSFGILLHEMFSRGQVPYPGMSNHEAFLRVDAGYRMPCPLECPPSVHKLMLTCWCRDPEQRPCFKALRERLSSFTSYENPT
Description: as §1

EPH-A4 = EPH-A4 (Homo sapiens, UniProt P54764)
Sequence of EPH-A4 (P54764 20-986, species assumed): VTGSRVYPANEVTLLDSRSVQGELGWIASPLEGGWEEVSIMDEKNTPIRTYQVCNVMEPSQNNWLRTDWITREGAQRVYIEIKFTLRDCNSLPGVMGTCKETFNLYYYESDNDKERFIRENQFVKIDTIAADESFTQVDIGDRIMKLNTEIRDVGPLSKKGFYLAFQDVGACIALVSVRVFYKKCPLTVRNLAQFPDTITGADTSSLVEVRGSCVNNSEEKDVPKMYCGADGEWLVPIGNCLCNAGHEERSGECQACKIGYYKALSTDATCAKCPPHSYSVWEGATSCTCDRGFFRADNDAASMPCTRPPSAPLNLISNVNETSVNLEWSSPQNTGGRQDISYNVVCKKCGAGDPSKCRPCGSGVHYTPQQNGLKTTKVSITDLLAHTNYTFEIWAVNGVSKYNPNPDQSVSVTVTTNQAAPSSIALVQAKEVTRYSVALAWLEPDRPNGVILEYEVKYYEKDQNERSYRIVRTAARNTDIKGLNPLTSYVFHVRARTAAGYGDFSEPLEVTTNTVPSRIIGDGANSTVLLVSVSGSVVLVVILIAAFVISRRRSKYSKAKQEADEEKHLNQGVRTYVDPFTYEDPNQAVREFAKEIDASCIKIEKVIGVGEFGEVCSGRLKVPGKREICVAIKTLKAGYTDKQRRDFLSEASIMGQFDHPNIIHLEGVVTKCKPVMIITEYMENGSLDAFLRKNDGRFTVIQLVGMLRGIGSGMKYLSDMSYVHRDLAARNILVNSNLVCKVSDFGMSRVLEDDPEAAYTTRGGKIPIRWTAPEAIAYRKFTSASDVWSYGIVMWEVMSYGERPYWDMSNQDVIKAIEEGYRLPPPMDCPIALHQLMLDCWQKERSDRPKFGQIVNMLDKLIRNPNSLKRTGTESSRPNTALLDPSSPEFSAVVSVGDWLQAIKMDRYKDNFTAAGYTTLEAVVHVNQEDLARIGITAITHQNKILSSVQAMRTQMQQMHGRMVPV
Description: as §1

| SMILES | inhibition at 5 µM (KIT) | inhibition of kinase activity, EPH-A5 (EPH-A5) | inhibition at 5 µM (TRKA) | inhibition at 5 µM (LCK) | inhibition at 5 µM (MUSK) | inhibition at 5 µM (PDGFR-a) | inhibition at 5 µM (HIPK4) | inhibition at 5 µM (BRK) | inhibition at 5 µM (EPH-A4) |
| --- | --- | --- | --- | --- | --- | --- | --- | --- | --- |
| CNC(=O)c1cc(Oc2c(F)cc(NC(=O)c3nc(NC)sc3-c3ccc(F)cc3)cc2F)ccn1 [Compound 19] | 50 to 79% | D (category D for 50-79) | 50 to 79% | 50 to 79% | < 50% | 50 to 79% | ≥ 95% | 50 to 79% | 50 to 79% |
| CNC(=O)c1cc(Oc2ccc(NC(=O)c3nc(OC4CC4)oc3-c3ccc(F)cc3)cc2F)ccn1 [Compound 32] | < 50% | D (category D for 50-79) | 50 to 79% | 80 to 89% | < 50% | < 50% | ≥ 95% | ≥ 95% | 50 to 79% |
| CNC(=O)c1cc(Oc2ccc(NC(=O)c3nc(C4CC4)oc3-c3ccc(F)cc3)cc2F)ccn1 [Compound 26] | 50 to 79% | C (C=80%-89% at 5 um) | 80 to 89% | 90 to 94% | 80 to 89% | 50 to 79% | ≥ 95% | 90 to 94% | 80 to 89% |
| CNC(=O)c1cc(Oc2ccc(NC(=O)c3nc(OC)oc3-c3ccc(F)cc3)cc2F)ccn1 [Compound 15] | 50 to 79% | D (category D for 50-79) | 50 to 79% | 50 to 79% | < 50% | 50 to 79% | ≥ 95% | 50 to 79% | 50 to 79% |
| CNC(=O)c1cc(Oc2ccc(NC(=O)c3nc(SC)oc3-c3ccc(F)cc3Cl)cc2)ccn1 [Compound 3] | 50 to 79% | E (category E is less than 50%) | 80 to 89% | ≥ 95% | 50 to 79% | 50 to 79% | ≥ 95% | 90 to 94% | < 50% |
| CSc1nc(C(=O)Nc2ccc(Oc3ccnc(C(=O)NCCN(C)C)c3)c(F)c2)c(-c2ccc(F)cc2)o1 [Compound 41] | < 50% | D (category D for 50-79) | < 50% | 50 to 79% | < 50% | < 50% | ≥ 95% | ≥ 95% | 50 to 79% |
| CNC(=O)c1cc(Oc2ccc(NC(=O)c3nc(NC)oc3-c3ccc(F)s3)cc2F)ccn1 [Compound 17] | < 50% | E (category E is less than 50%) | 50 to 79% | < 50% | < 50% | < 50% | ≥ 95% | < 50% | < 50% |
| COc1nc(C(=O)Nc2ccc(Oc3ccnc(C(=O)NCC(F)(F)F)c3)c(F)c2)c(-c2ccc(F)cc2)o1 [Compound 43] | < 50% | E (category E is less than 50%) | < 50% | < 50% | < 50% | < 50% | ≥ 95% | < 50% | < 50% |
| CNC(=O)c1cc(Oc2ccc(NC(=O)c3nc(COC)oc3-c3ccc(F)cc3)cc2F)ccn1 [Compound 30] | 50 to 79% | C (C=80%-89% at 5 um) | 90 to 94% | 80 to 89% | 80 to 89% | 50 to 79% | ≥ 95% | ≥ 95% | 90 to 94% |
| CSc1nc(C(=O)Nc2ccc(Oc3ccnc(C(=O)NC4COC4)c3)c(F)c2)c(-c2ccc(F)c(F)c2)o1 [Compound 37] | < 50% | E (category E is less than 50%) | < 50% | < 50% | < 50% | < 50% | ≥ 95% | < 50% | < 50% |
| CNC(=O)c1cc(Oc2ccc(NC(=O)c3nc(SC)oc3-c3ccc(Cl)s3)cc2)ccn1 [Compound 5] | < 50% | E (category E is less than 50%) | < 50% | 50 to 79% | < 50% | < 50% | 90 to 94% | 50 to 79% | < 50% |
| [2H]C([2H])([2H])NC(=O)c1cc(Oc2ccc(NC(=O)c3nc(SC)oc3-c3ccc(F)c(F)c3)cc2F)ccn1 [Compound 33] | < 50% | E (category E is less than 50%) | 50 to 79% | 50 to 79% | < 50% | < 50% | ≥ 95% | 50 to 79% | < 50% |
| CNC(=O)c1cc(Oc2ccc(NC(=O)c3nc(SC)oc3-c3ccc(F)cc3F)cc2F)ccn1 [Compound 12] | 50 to 79% | D (category D for 50-79) | 80 to 89% | ≥ 95% | 50 to 79% | < 50% | 90 to 94% | ≥ 95% | 50 to 79% |
| CSc1nc(C(=O)Nc2ccc(Oc3ccnc(C(=O)NC4CCN(C)CC4)c3)c(F)c2)c(-c2ccc(F)cc2)o1 [Compound 42] | < 50% | E (category E is less than 50%) | < 50% | < 50% | < 50% | < 50% | ≥ 95% | ≥ 95% | < 50% |
| CSc1nc(C(=O)Nc2ccc(Oc3ccnc(N)c3Cl)c(F)c2)c(-c2ccc(F)cc2)o1 [Compound 1] | < 50% | E (category E is less than 50%) | < 50% | < 50% | < 50% | < 50% | 90 to 94% | 50 to 79% | < 50% |
| CSc1nc(C(=O)Nc2ccc(Oc3ccnc(C(=O)NC4COC4)c3)c(F)c2)c(-c2ccc(F)s2)o1 [Compound 28] | < 50% | E (category E is less than 50%) | < 50% | < 50% | < 50% | < 50% | ≥ 95% | < 50% | < 50% |

Source: patent US11629143B2, “HipK4 inhibitors and uses thereof” (Vibliome Therapeutics, LLC, priority 2020, dated 2023)
